Laboratory results reported in the NIST ThermoML archive (doi:10.1016/j.fluid.2016.02.035).

Experiment: mn = molality of the nth substance listed, in mol/kg
Conditions: 101 kPa, Liquid; for speed of sound: Sing-around technique in a fixed-path interferometer; for mass density: Vibrating tube method

CCCC[N+](CCCC)(CCCC)CCCC.[Br-] [tetrabutylammonium bromide] + O
Conditions	mass density, 293.15 K [kg/m3]	mass density, 298.15 K [kg/m3]	mass density, 303.15 K [kg/m3]	speed of sound, 293.15 K [m/s]	speed of sound, 298.15 K [m/s]	speed of sound, 303.15 K [m/s]
m1 = 0.0015	998.245	997.085	995.686	1483.3	1497.3	1509.6
m1 = 0.0047	998.318	997.156	995.754	1484.1	1498.2	1510.3
m1 = 0.0061	998.352	997.187	995.785	1484.6	1498.6	1510.7
m1 = 0.013	998.509	997.335	995.926	1486.1	1500	1512.1
m1 = 0.0183	998.632	997.458	996.041	1487.7	1501.4	1513.3
m1 = 0.026	998.809	997.626	996.204	1489.5	1503.1	1514.9
m1 = 0.031	998.934	997.744	996.318	1490.9	1504.3	1516.1
m1 = 0.0492	999.359	998.14	996.704	1495.1	1508.4	1519.8
m1 = 0.0796	1000.08	998.844	997.37	1502.6	1515.2	1526.2
m1 = 0.0997	1000.55	999.297	997.802	1507.5	1519.7	1530.3
m1 = 0.1118	1000.85	999.574	998.068	1510.4	1522.4	1532.8
m1 = 0.1291	1001.26	999.966	998.443	1514.5	1526.2	1536.2
m1 = 0.1464	1001.68	1000.37	998.826	1518.5	1529.9	1539.7
m1 = 0.1626	1002.06	1000.73	999.177	1522.2	1533.3	1542.8
m1 = 0.1952	1002.85	1001.49	999.897	1529.5	1540.1	1548.9
m1 = 0.2309	1003.71	1002.3	1000.67	1537.5	1547.3	1555.6
m1 = 0.2732	1004.73	1003.27	1001.6	1546.5	1555.7	1563.3
m1 = 0.3073	1005.55	1004.05	1002.33	1553.8	1562.3	1569.3
m1 = 0.3449	1006.43	1004.88	1003.12	1561.7	1569.5	1575.8
m1 = 0.5437	1011.1	1009.3	1007.29	1599.5	1603.7	1606.7
m1 = 0.7712	1016.12	1014.01	1011.73	1636	1636.3	1635.7
